Reference: patent US11958842B2, “Substituted phenazines and methods of treating cancer and bacterial diseases” (Adjutec Pharma AS, priority 2016, dated 2024)
Read-outs that look alike come from different tables or passages of the source.

Tests used:
[1] = test system: vancomycin-resistant E. faecium vanA A1-22; assay: Microbroth dilution MIC; format: cell-based; settings: compound alone
Protocol: (§1) Day 1: • Plate bacterial strain(s) on appropriate media: • Gram-negative bacteria with ESBLs or carbapenemases: green agar plates with 100 mg/L ampicillin • Gram-negative bacteria without β-lactamases: green agar plates • Gram-positive bacteria (Staphylococci and Enterococci): blood agar plates • Incubate o.n. at 37° C.
(§2) Prepare the Bacterial Inoculum: • Prepare a 0.5 McFarland suspension of bacteria in 0.85% NaCl. (Should be used within 15 min of preparation). • Dilute the 0.5 McFarland suspension 1:100 into MH broth.
(§3) Check the inoculum by diluting the prepared bacterial suspension 1:100 (10 μl bacterial suspension+990 μl 0.85% NaCl). Plate 10 μl of the dilution on MH agar plates (×2). Incubate o.n. at 37° C., count the colonies and calculate the final CFU/ml inoculum in the plate by multiplying the average number of colonies with 10000 and divide by 2. The final inoculum should be between 3-7×10^5 CFU/ml. • Add 50 μl of the prepared bacterial suspension to each well in the microtiter plate except negative growth control.
(§4) Preparation of Compounds/Antibiotics • Calculate the desired concentration-range and volume of the compounds/antibiotics in the assay. For antibiotics this will depend on the MIC to meropenem of the bacterial strains to be tested. Dilute the stock solution in MH broth. Make subsequent 2-fold dilutions in MH broth of the desired concentrations if a concentration range is to be tested (remember the extra dilution factor in the assay plate). Always include extra volume for pipetting. Take into consideration stock solutions that are made in buffers that have an effect on bacterial growth (e.g. DMSO).
(§5) This experimental design was used for the results in Tables 4 and 5 below. In Table 4, inhibitor concentration dependency on the MIC of meropenem was studied.

[2] = test system: methicillin-resistant S. aureus MRSA A4-37; assay: Microbroth dilution MIC; format: cell-based; settings: compound alone
Protocol: as §1, §2, §3, §4, §5

[3] = test system: normal rat kidney epithelial (NRK) cells; assay: Cytotoxicity, WST-1 and nuclear morphology (Example 73); format: cell-based; settings: Rattus norvegicus
How it was run: (§6)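 MOLM-13 (RPMI/FBS), NRK and H9c2 (DMEM/10% FBS) cells under 2% or 20% O2 at 37° C were exposed to analogues for 24 h (≤1% DMSO). Viability was read by WST-1, and cell death by Hoechst 33342 nuclear morphology; EC50 came from four-parameter regression.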

[4] = test system: human acute myeloid leukemia cell line MOLM-13; assay: as above; format: cell-based; settings: Homo sapiens
How it was run: as §6

[5] = test system: rat cardiomyoblast (H9c2) cells; assay: as above; format: cell-based; settings: Rattus norvegicus; H9c2, 19% O2, 24 hours of incubation; read-out: EC50 (μM) H9c2 19% O2
How it was run: as §6

hepG2 = assay: Cytotoxicity (Example 73, Table 2); format: cell-based; settings: Homo sapiens; hepG2, 24 hours of incubation; read-out: EC50 (μM) hepG2
[6] = Parallel artificial membrane permeability assay (PAMPA); settings: PAMPA, 50 μM in PBS, room temperature, five hours

- MIC A1-22 E. faecium vanA [1]: < 8 mg/L
- MIC A4-37 S. aureus MRSA [2]: < 0.5 mg/L
- LogPeff [6]: −5.29
Structure (SMILES): COc1cccc2c1[n+]([O-])c1cccc(O)c1[n+]2O [Example 5a, 1-hydroxy-6-methoxyphenazine 5.10-dioxide, reference compound]
- EC50 ([3]; 2% O2, 24 hours of incubation, read-out: EC50 (μM) NRK 2% O2): 76 ± 14 µM
- EC50 ([3]; 19% O2, 24 hours of incubation, read-out: EC50 (μM) NRK 19% O2): 77 ± 11 µM
- EC50 ([4]; MOLM-13, 2% O2, 24 hours of incubation, read-out: EC50 (μM) MOLM-13 2% O2): 0.77 ± 0.13 µM
- EC50 ([4]; MOLM-13, 19% O2, 24 hours of incubation, read-out: EC50 (μM) MOLM-13 19% O2): 1.4 ± 0.3 µM
- EC50 [5]: 46 ± 4.1 µM
- EC50 (hepG2): 70 µM
